For test [1], the target named is T1, human recombinant 5-HT2A receptor (Homo sapiens, UniProt P28223).
T1 construct: expressed in transfected cells; host or cells: Jump-In HEK cells (membrane preparation)
Nature of the test: Test Example 1-2: 5-HT2A receptor binding inhibition test ([3H]-Ketanserin; non-specific ligand Ketanserin). The note with it: [3H]-Ketanserin; non-specific binding with 500 µmol/L Ketanserin; room temperature (25°C), 1.5 hours; read-out: h 5-HT2A Ki. As to the method:
The Kd value is calculated when the lot of the cell membrane is changed. 1 mmol/L non-specific binding calculating compound dissolved in DMSO or DMSO is previously dispensed to the microplate by 0.5 µL, and the cell membrane is diluted with an Assay buffer. The radioactive ligand solution is diluted step by step, and counts are checked with a liquid scintillator. The Assay buffer containing diluted cell membranes is dispensed by 50 µL/well into the microplate. The radioactive ligand solution is then dispensed by 50 µL/well into the microplate and the plate is sealed. The microplate is allowed to stand for 1.5 hours at room temperature (25°C). During this time, 50 mmol/L Tris-HCl (pH 7.4) is dispensed by 50 µL/well into the UniFilter plate and allowed to stand at 4°C for 1 hour or longer. Thereafter, filtration is performed with a Cell Harvester (PerkinElmer). The radioactive ligand solution is dispensed by 10 µL/well into empty wells of the UniFilter plate. After drying the UniFilter plate at room temperature, MicroScinti20 is dispensed by 50 µL/well into the UniFilter plate, and the plate is sealed. UniFilter plate is allowed to stand at room temperature overnight. The radioactivity of [^3H]-Ketanserin bound to the 5-HT2A receptor is measured using Microbeta2 (PerkinElmer) at a measurement time of 1 min/well. The Saturation curve is drawn from the measured value, and the Kd value is calculated from the slope of the Scatchard Plot.
A compound solution dissolved in DMSO is dispensed to a microplate by 0.5 µL, and a cell membrane and a hot ligand are each diluted with an Assay buffer. The Assay buffer containing diluted cell membrane is then dispensed by 50 µL/well into the microplate. The radioactive ligand solution is then dispensed by 50 µL/well into the microplate and the plate is sealed. Thereafter, the microplate is allowed to stand at room temperature (25°C) for 1.5 hours. During this time, 50 mmol/L Tris-HCl (pH 7.4) is dispensed by 50 µL/well into the UniFilter plate and allowed to stand at 4°C for 1 hour or longer. Thereafter, filtration is performed with a Cell Harvester (PerkinElmer). After drying the UniFilter plate at room temperature, MicroScinti20 is dispensed by 50 µL/well into the UniFilter plate, and the plate is sealed. UniFilter plate is allowed to stand at room temperature overnight. The radioactivity of [^3H]-Ketanserin bound to the 5-HT2A receptor is measured using Microbeta2 (PerkinElmer) at a measurement time of 1 min/well. Non-specific binding is calculated from the radioactivity of [^3H]-Ketanserin in the presence of 500 µmol/L Ketanserin of unlabeled ligand, and total binding is calculated from the radioactivity of [^3H]-Ketanserin in the absence of the compound of the present invention (Vehicle). Finally, the Ki value is calculated from the dose-response curve.
(§1) (The binding activity of the compound according to the present invention is calculated from the following binding inhibition rate (%).) Inhibition rate (%) = [1−(c−a)/(b−a)] × 100 [formula] • a; average cpm of non-specific binding • b; average cpm of total binding • c; cpm in the presence of the test compound
(§2) The compounds of the present invention were tested essentially as described above.

The target of test [2] is T2, human recombinant 5-HT2C receptor (Homo sapiens, UniProt P28335).
T2 construct: expressed in transfected cells; host or cells: Jump-In HEK cells (membrane preparation)
T2 sequence (P28335 33-458): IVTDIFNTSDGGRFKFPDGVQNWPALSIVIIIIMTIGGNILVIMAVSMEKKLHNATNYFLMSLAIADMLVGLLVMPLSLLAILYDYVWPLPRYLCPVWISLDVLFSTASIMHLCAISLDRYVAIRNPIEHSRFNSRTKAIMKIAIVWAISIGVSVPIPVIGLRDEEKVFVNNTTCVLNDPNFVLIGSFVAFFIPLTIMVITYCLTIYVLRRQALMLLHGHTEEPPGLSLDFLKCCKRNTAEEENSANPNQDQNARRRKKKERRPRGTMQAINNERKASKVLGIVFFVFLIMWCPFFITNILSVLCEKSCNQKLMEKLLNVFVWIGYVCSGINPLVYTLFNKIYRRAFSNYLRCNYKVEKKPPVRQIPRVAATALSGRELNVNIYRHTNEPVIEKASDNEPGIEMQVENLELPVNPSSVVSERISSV
Nature of the test: Test Example 2: 5-HT2C receptor binding inhibition test ([3H]-Mesulergine; non-specific ligand Serotonin HCl). Conditions: human serotonin 5-HT2C receptor binding activity. The method, then: The Kd value is calculated when the lot of the cell membrane is changed. 1 mmol/L non-specific binding calculating compound dissolved in DMSO or DMSO is previously dispensed to the microplate by 0.5 µL, and the cell membrane is diluted with an Assay buffer. The radioactive ligand solution is diluted step by step, and counts are checked with a liquid scintillator. The Assay buffer containing diluted cell membranes is dispensed by 50 µL/well into the microplate. The radioactive ligand solution is then dispensed by 50 µL/well into the microplate and the plate is sealed. The microplate is allowed to stand at 37°C for 2 hours. During this time, 50 mmol/L Tris-HCl (pH 7.4) is dispensed by 50 µL/well into the GF/B UniFilter plate and allowed to stand at 4°C for 1 hour or longer. Thereafter, filtration is performed with a Cell Harvester (PerkinElmer). The radioactive ligand solution is dispensed by 10 µL/well into empty wells of the GF/B UniFilter plate. After drying the GF/B UniFilter plate at room temperature, MicroScinti20 is dispensed by 50 µL/well into the GF/B UniFilter plate, and the plate is sealed. GF/B UniFilter plate is allowed to stand at room temperature overnight. The radioactivity of [^3H]-Mesulergine bound to the 5-HT2C receptor is measured using Microbeta2 (PerkinElmer) at a measurement time of 1 min/well. The Saturation curve is drawn from the measured value, and the Kd value is calculated from the slope of the Scatchard Plot.
A compound solution dissolved in DMSO is dispensed to a microplate by 0.5 µL, and a cell membrane and a hot ligand are each diluted with an Assay buffer. The Assay buffer containing diluted cell membrane is then dispensed by 50 µL/well into the microplate. The radioactive ligand solution is then dispensed by 50 µL/well into the microplate and the plate is sealed. The microplate is then allowed to stand at 37°C for 2 hours. During this time, 50 mmol/L Tris-HCl (pH 7.4) is dispensed by 50 µL/well into the GF/B UniFilter plate and allowed to stand at 4°C for 1 hour or longer. Thereafter, filtration is performed with a Cell Harvester (PerkinElmer). After drying the GF/B UniFilter plate at room temperature, MicroScinti20 is dispensed by 50 µL/well into the GF/B UniFilter plate, and the plate is sealed. GF/B UniFilter plate is allowed to stand at room temperature overnight. The radioactivity of [^3H]-Mesulergine bound to the 5-HT2C receptor is measured using Microbeta2 (PerkinElmer) at a measurement time of 1 min/well. Non-specific binding is calculated from the radioactivity of [^3H]-Mesulergine in the presence of 500 µmol/L Serotonin HCl of unlabeled ligand, and total binding is calculated from the radioactivity of [^3H]-Mesulergine in the absence of the compound of the present invention (Vehicle). Finally, the Ki value is calculated from the dose-response curve.
as §1, §2

T1 sequence (P28223 whole entry): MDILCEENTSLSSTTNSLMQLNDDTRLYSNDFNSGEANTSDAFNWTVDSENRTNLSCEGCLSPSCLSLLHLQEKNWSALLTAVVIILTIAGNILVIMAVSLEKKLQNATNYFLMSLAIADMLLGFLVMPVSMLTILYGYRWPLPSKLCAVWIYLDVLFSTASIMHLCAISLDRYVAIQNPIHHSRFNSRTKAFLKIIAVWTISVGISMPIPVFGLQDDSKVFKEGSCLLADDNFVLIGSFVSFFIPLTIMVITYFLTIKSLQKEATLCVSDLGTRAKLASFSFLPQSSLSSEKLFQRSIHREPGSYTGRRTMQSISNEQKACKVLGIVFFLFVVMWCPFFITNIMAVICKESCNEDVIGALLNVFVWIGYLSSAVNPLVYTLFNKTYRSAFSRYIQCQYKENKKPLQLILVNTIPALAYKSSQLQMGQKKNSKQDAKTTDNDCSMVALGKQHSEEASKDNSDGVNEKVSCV

Regarding `Cc1cc(OC(F)(F)F)cnc1Nc1cc(-c2c(C)cnn2C)c(OCCO)cn1` [Compound I-180], the Ki in test [1] worked out at 0.346 nM; in test [2] it was 1.86 nM.

Take `Cc1nc(C)c(-c2cc(Nc3ncc(OC(F)(F)F)cc3C)ncc2OCCO)c(C)n1` [Compound I-181]: the figures for the Ki in test [1] and in test [2] were 0.984 nM and 3.62 nM, respectively.

With `CC(C)Oc1ccc(Nc2cc(-c3c(Br)cnn3C)c(OCCO)cn2)nc1` [Compound I-182], the inhibitory constant (Ki) in test [1] came out at 0.475 nM; in test [2], 4.75 nM.

Turning to `Cc1cnn(C)c1-c1cc(Nc2ncc(OC(F)(F)F)cc2Cl)ncc1OCCO` [Compound I-183], the Ki in test [1] was 0.271 nM; in test [2] it was 1.22 nM.

Turning to `COCc1nc(C)c(-c2cc(Nc3ncc(C(F)(F)F)cc3F)c(F)cc2OCCO)c(C)n1` [Compound I-184], the inhibitory constant (Ki) in test [1] worked out at 3.84 nM; in test [2], 2.98 nM.

With `Cn1ncc(Br)c1-c1cc(Nc2ccc(OC3CC3)cn2)ncc1OCCO` [Compound I-185], the values for the inhibition constant (Ki) in test [1] and in test [2] were 0.42 nM and 2.76 nM, respectively.

For `COCc1nc(C)c(-c2cc(Nc3ncc(OC(F)(F)F)cc3C)ncc2OCCO)c(C)n1` [Compound I-186], the Ki amounted to 1.75 nM in test [1] and 1.73 nM in test [2].

With `Cn1ncc(C#N)c1-c1cc(Nc2ncc(OC(F)(F)F)cc2Cl)ncc1OCCO` [Compound I-187], the inhibition constant (Ki) came to 0.183 nM in test [1] and 2.9 nM in test [2].

`Cn1ncc(C#N)c1-c1cc(Nc2ccc(-c3ccc(F)cc3)cn2)ncc1OCCO` [Compound I-188]: the inhibition constant Ki turned out to be 0.181 nM in test [1] and 1.87 nM in test [2].

Regarding `Cn1ncc(C#N)c1-c1cc(Nc2ccc(-c3ccc(Cl)cc3)cn2)ncc1OCCO` [Compound I-189], the values for the inhibition constant (Ki) in test [1] and in test [2] were 0.217 nM and 0.663 nM, respectively.

Regarding `Cn1ncc(C#N)c1-c1nc(Nc2ccc(-c3ccc(F)cc3)cn2)c(F)cc1OCCO` [Compound I-190], the figures for the inhibitory constant (Ki) in test [1] and in test [2] were 0.493 nM and 9.08 nM, respectively.

`Cn1ncc(C#N)c1-c1nc(Nc2ccc(-c3ccc(Cl)cc3)cn2)c(F)cc1OCCO` [Compound I-191]: the inhibitory constant (Ki) in test [1] turned out to be 0.473 nM; in test [2], 5.29 nM.

Take `COCc1nc(C)c(-c2cc(Nc3ccc(C4CC(F)(F)C4)cn3)ncc2OCCO)c(C)n1` [Compound I-192]: the inhibition constant (Ki) stood at 2.31 nM in test [1] and 9.15 nM in test [2].

As to `COCc1nc(C)c(-c2nc(Nc3ccc(C4CCC4)cn3)c(F)cc2OCCO)c(C)n1` [Compound I-193], the inhibitory constant (Ki) came to 3.43 nM in test [1] and 3.76 nM in test [2].

As for `COCc1nc(C)c(-c2cc(Nc3ncc(C4CC(F)(F)C4)cc3Cl)ncc2OCCO)c(C)n1` [Compound I-195], the Ki in test [1] was 6.75 nM; in test [2] it was 2.1 nM.

For `COCc1nc(C)c(-c2cc(Nc3ncc(OC(F)(F)F)cc3OC)ncc2OCCO)c(C)n1` [Compound I-196], the Ki in test [1] stood at 4.46 nM; in test [2] it was 5.17 nM.

`Cc1nc(C)c(-c2cc(Nc3ncc(C(F)(F)F)cc3F)c(F)cc2OC[C@H](C)O)c(C)n1` [Compound I-197]: the Ki is 2.83 nM in test [1] and 65.6 nM in test [2].

Regarding `COCc1nc(C)c(-c2cc(Nc3ncc(C(F)(F)F)cc3F)ncc2OCCO)c(C)n1` [Compound I-199], the Ki in test [1] is 6.09 nM; in test [2], 5.98 nM.

As to `COCc1nc(C)c(-c2cc(Nc3ncc(C(F)(F)F)cc3Cl)ncc2OCCO)c(C)n1` [Compound I-201], the inhibition constant Ki in test [1] is 2.26 nM; in test [2], 2.54 nM.

For the molecule `Cc1ncnc(C)c1-c1cc(Nc2ncc(C(F)(F)F)cc2Cl)ncc1OCCO` [Compound I-202], the inhibitory constant (Ki) in test [1] worked out at 0.828 nM; in test [2], 9.12 nM.

`Cc1nc(COC(F)F)nc(C)c1-c1cc(Nc2ncc(C(F)(F)F)cc2Cl)ncc1OCCO` [Compound I-203]: the Ki worked out at 1.97 nM in test [1] and 1.82 nM in test [2].

For `Cc1nc(COC(C)C)nc(C)c1-c1cc(Nc2ncc(C(F)(F)F)cc2Cl)ncc1OCCO` [Compound I-204], the Ki in test [1] turned out to be 2.35 nM; in test [2] it was 2.7 nM.

Turning to `COCCOCc1nc(C)c(-c2cc(Nc3ncc(C(F)(F)F)cc3Cl)ncc2OCCO)c(C)n1` [Compound I-205], the values for the Ki in test [1] and in test [2] were 2.94 nM and 0.752 nM, respectively.

Consider `Cc1nc(C2CC2)nc(C)c1-c1cc(Nc2ncc(C(F)(F)F)cc2Cl)ncc1OCCO` [Compound I-206], for which the Ki stood at 1.3 nM in test [1] and 1.78 nM in test [2].

Consider `Cc1nc(C2COC2)nc(C)c1-c1cc(Nc2ncc(C(F)(F)F)cc2Cl)ncc1OCCO` [Compound I-207], for which the values for the inhibition constant (Ki) in test [1] and in test [2] were 2.23 nM and 6.02 nM, respectively.

For `Cc1nc(C2CCC2)nc(C)c1-c1cc(Nc2ncc(C(F)(F)F)cc2Cl)ncc1OCCO` [Compound I-208], the results for the Ki in test [1] and in test [2] were 1.02 nM and 1.67 nM, respectively.

For the molecule `Cc1nc(N2CCCC2)nc(C)c1-c1cc(Nc2ncc(C(F)(F)F)cc2Cl)ncc1OCCO` [Compound I-209], the values for the Ki in test [1] and in test [2] were 1.71 nM and 5.63 nM, respectively.

As to `COc1nc(C)c(-c2cc(Nc3ncc(C(F)(F)F)cc3Cl)ncc2OCCO)c(C)n1` [Compound I-210], the results for the Ki in test [1] and in test [2] were 0.804 nM and 3.67 nM, respectively.

As for `Cc1nc(OCC(F)F)nc(C)c1-c1cc(Nc2ncc(C(F)(F)F)cc2Cl)ncc1OCCO` [Compound I-211], the Ki was determined as 0.706 nM in test [1] and 1.89 nM in test [2].

What is called Ki is the dissociation constant of the complex between target and ligand, obtained from inhibition or displacement.

Source of the values: patent publication EP4631938A1, “NITROGEN-CONTAINING HETEROCYCLE WITH SEROTONIN RECEPTOR-BINDING ACTIVITY AND CARBOCYCLIC DERIVATIVE” (Shionogi & Co., Ltd, priority 2022, dated 2024).
